Reference: article PMC12763877 (Journal of Experimental & Clinical Cancer Research : CR, 2025)
Where two headings read alike, the source gives them in different places.

What was measured:
APLNR [1] = biological target: T1, APLNR (Homo sapiens, UniProt P35414); experiment: cAMP assay in APLNR-HEK293T cells; format: cell-based; parameters: expressed in transfected cells; host or cells: HEK293; settings: forskolin 20 µM, Apelin-13 0.1 µM, compound 10^-4-100 µM
T1 sequence (P35414 1-380): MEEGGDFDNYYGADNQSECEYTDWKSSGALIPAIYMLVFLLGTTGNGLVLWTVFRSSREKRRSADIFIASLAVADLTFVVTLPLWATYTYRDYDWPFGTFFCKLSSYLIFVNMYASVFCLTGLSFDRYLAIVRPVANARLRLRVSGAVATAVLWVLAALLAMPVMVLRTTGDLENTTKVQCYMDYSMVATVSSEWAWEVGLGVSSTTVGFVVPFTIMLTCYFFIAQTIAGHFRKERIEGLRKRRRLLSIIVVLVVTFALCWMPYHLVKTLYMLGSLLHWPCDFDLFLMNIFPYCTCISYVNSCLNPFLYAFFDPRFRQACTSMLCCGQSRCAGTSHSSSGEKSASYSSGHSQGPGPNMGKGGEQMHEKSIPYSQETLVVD
Description: A suspension of APLNR-HEK293T cells was prepared and seeded into a 384-well OptiPlate™ 384 at a density of 1 × 10⁴ cells per well. The cells were cultured at 37℃ for 24 h. The culture medium was then removed, and 7.5 µL of serum-free medium containing 500 µM IBMX and the test compound was added to each well. The plate was incubated at 37℃ with 5% CO2 for 30 min. The concentration of cAMP was subsequently measured using the cAMP-Glo™ Assay Kit (Promega).
To characterize the molecular interactions between candesartan and APLNR, we performed molecular docking simulations using the APLNR crystal structure (PDB: 7SUS) as a template. […] In addition, previous studies have established that APLNR activation by its endogenous agonist Apelin-13 […] Gi protein signaling, thereby attenuating forskolin-induced cAMP accumulation. Then, using APLNR overexpression cell line (HEK293T-APLNR) and cAMP quantification assays to investigate the inhibitory activity of candesartan on APLNR.

zebrafish embryos = experiment: Zebrafish embryo toxicity; format: in vivo, zebrafish (Danio rerio); settings: embryos exposed 12 to 48 hpf, survival
Description: (§1) Transgenic zebrafish Tg(flk: EGFP) were obtained from the China Zebrafish Resource Center and maintained at 28 ± 1 °C under a 14-hour light/10-hour dark cycle. […] Survival rates were recorded to calculate the median lethal concentration (LC₅₀). For the retinal angiogenesis assay, embryos at 1 day post fertilization (dpf) were transferred to E3 medium containing 5 mM CoCl₂·6 H₂O and 2.5 µg/mL GS4012 to induce hypoxia and abnormal vessel formation. At 3 dpf, test compounds were added and incubation continued until 5 dpf. Blank, model, and vehicle (≤ 0.1% DMSO) controls were included, with at least three replicates per group (n = 10–15 embryos). At 5 dpf, retinal vasculature was imaged using fluorescence microscopy and analyzed for branching number, vessel length, and density using ImageJ. Data are presented as mean ± standard deviation (SD) and analyzed using one-way ANOVA followed by Tukey’s post hoc test, with p < 0.05 considered statistically significant.
The zebrafish (Danio rerio) model was employed due to its distinct advantages, the optical transparency, which enable in vivo vascular visualization. […] Firstly, the 8 candidate compounds underwent preliminary toxicity evaluation in zebrafish embryos. […] At 48 hpf, the number of surviving embryos was quantified, and the lethal dose 50 (LD50) for each compound was determined based on the survival data. […]

[2] = system: zebrafish retinal vasculature; experiment: Zebrafish hypoxia-induced retinal vascular abnormality model; format: in vivo, zebrafish (Danio rerio); settings: CoCl2 5 mM + GS401 2.5 ug/ml; compounds at concentrations < LD50 (A-2 1 µM); imaged at 5 dpf
Description: as §1
Furthermore, we established a hypoxia-induced vascular dysregulation model with CoCl2 (5mM) and a VEGF inductive agent GS401 (2.5 ug/ml) in zebrafish embryos to assess the capacity of candidate compounds to regulate vascular normalization. Following Zebrafish toxicity profiling, 8 candidate compounds were administered at optimized concentrations (< LD50) to treat the zebrafish vascular abnormality model separately. […]

HUVEC = experiment: Sulforhodamine B proliferation assay; format: cell-based, human; settings: for IC50: Homo sapiens, HUVEC, read-out: IC50, HUVEC proliferation
Description: The culture medium was aspirated from the plates, and cells were fixed with 10% trichloroacetic acid (TCA) for 30 min. The plates were then washed twice with distilled water and air-dried. Subsequently, 0.4% sulforhodamine B (SRB) solution was added, and the plates were stained on a shaker for 20 min. The staining solution was discarded, and excess dye was removed by washing with freshly prepared 1% acetic acid. After air-drying, 10 mM Tris solution was added to each well. The plates were agitated on a shaker for 5 min to dissolve the dye, and the absorbance was measured at 560 nm using a microplate reader.
Angiogenesis is a multi-step process requiring coordinated endothelial functions, such as cell migration, proliferation, and extracellular matrix remodeling. […] Moreover, in the later stages of angiogenesis, vascular endothelial cells undergo proliferation and migration and further align to form cord-like, lumen-like structures(21). Thus, we conducted a vascular tube formation assay to evaluate the effect of candesartan on vascular normalization.

APLNR [3] = biological target: T1, APLNR; experiment: FLIPR Calcium 6 assay, inhibition of Apelin-13-induced calcium flux; format: cell-based; parameters: expressed in transfected cells; host or cells: HEK293
Description: HEK293 cells stably expressing APLNR were seeded in 96-well plates (20,000 cells/well) and loaded with Calcium 6 dye (Molecular Devices) for 2 h. Candidate compounds dissolved in DMSO were applied at 2 µM for 15 min, followed by stimulation with the endogenous agonist Apelin-13 (100 nM). Real-time intracellular calcium flux was quantified using FLIPR Tetra® System (470–495 nm excitation/515–575 nm emission).
These candidates were further evaluated for APLNR inhibitory activity at the concentration of 2 µM by using a FLIPR® Calcium 6 Assay Kit, which quantifies ligand-induced intracellular calcium flux.

For CCOc1nc2cccc(C(=O)O)c2n1Cc1ccc(-c2ccccc2-c2nnn[nH]2)cc1 [Compound A-2, Candesartan], the “cAMP accumulation (reversal of Apelin-13 effect)” value (APLNR [1]) was “dose-dependently restored cAMP accumulation”, the “LD50(µM,48 h)” value (zebrafish embryos) was 1.10 ± 0.12 µM and the “Effect on hypoxia-induced retinal vascular pathology (ectopic branching, vascular architecture)” value [2] was “markedly attenuated these pathological features”. For the same compound, the “Cytotoxicity on HUVEC cells” value (HUVEC; 15 µM) was “no significant cytotoxicity”, the IC50 (HUVEC; 48 h) was 32.4 ± 1.69 µM and the IC50 (HUVEC; 72 h) was 27.1 ± 0.91 µM. For the same compound, the IC50 (APLNR [3]; FLIPR system, read-out: IC50, inhibition of Apelin-13-mediated calcium mobilization) was 1.21 µM and the inhibition at 2 µM (APLNR [3]; compound 2 µM, 15 min, then Apelin-13 100 nM, HEK293 cells stably expressing APLNR, read-out: Inhibition rate (2 μM, %)) was 72.3%.
